Molecules are shown by their SMILES.

T2 sequence (P41595 whole entry): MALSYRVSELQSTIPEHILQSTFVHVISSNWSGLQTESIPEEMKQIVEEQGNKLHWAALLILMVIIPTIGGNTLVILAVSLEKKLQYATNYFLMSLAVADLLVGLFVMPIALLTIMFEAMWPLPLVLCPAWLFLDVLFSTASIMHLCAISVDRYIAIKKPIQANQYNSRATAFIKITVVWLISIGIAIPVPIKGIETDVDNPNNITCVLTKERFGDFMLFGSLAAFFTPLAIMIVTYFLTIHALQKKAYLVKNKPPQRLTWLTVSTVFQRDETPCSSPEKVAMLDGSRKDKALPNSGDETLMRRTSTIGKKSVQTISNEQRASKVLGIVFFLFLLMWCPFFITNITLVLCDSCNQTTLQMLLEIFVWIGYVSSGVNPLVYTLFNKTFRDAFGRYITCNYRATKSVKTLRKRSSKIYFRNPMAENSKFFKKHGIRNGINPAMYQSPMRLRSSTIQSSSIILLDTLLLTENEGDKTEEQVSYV
T6 sequence (P28223 whole entry): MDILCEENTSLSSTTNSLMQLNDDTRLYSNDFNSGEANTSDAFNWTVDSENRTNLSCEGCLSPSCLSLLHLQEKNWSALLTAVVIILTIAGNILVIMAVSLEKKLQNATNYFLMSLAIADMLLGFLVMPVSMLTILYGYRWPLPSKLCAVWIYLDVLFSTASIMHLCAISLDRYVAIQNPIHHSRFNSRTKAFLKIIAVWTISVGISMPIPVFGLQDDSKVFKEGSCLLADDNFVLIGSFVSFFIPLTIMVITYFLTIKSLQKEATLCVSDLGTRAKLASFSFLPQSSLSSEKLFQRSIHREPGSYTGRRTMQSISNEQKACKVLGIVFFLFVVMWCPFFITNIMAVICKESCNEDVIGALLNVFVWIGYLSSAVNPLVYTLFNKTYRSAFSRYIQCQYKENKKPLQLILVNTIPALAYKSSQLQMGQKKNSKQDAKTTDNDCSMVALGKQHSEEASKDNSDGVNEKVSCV
5-hydroxytryptamine receptor 7 (Homo sapiens), sequence (P34969 whole entry): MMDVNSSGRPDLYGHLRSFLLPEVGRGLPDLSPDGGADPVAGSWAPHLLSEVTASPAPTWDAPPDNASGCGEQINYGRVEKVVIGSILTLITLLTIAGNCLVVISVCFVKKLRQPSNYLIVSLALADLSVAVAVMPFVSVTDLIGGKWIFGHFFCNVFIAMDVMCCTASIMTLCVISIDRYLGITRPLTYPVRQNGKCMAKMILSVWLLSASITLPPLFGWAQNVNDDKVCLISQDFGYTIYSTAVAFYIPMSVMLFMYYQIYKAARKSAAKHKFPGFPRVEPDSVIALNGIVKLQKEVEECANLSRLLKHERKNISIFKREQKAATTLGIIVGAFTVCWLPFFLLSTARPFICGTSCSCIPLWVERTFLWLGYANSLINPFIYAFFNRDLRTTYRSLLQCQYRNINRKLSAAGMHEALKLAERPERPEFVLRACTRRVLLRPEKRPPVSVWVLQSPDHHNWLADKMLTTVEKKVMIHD
5-hydroxytryptamine receptor 1E (Homo sapiens), sequence (P28566 whole entry): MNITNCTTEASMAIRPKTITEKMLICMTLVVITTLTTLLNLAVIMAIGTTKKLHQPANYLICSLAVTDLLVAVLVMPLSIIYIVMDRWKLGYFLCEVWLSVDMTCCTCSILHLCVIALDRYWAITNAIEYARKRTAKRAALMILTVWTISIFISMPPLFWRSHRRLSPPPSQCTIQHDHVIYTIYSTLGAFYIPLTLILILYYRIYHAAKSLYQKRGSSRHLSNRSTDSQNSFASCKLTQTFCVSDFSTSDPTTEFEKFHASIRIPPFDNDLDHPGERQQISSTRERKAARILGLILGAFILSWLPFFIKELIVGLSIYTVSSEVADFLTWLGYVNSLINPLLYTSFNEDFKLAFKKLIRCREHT
5-hydroxytryptamine receptor 4 (Homo sapiens), sequence (Q13639 whole entry): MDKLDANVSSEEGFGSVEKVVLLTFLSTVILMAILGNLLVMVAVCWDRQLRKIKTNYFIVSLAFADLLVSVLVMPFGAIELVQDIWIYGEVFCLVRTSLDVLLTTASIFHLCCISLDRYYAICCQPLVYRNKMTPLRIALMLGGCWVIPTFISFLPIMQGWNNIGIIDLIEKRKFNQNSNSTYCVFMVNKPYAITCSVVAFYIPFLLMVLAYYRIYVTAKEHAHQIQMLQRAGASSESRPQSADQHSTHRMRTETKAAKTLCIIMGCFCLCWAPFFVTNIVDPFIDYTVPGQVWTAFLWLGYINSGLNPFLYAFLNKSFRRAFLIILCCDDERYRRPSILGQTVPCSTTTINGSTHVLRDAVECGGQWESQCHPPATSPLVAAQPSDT

The first assay has as its target T1, Adenosine receptor A1 (Homo sapiens, UniProt P30542).
T1 sequence (P30542 whole entry): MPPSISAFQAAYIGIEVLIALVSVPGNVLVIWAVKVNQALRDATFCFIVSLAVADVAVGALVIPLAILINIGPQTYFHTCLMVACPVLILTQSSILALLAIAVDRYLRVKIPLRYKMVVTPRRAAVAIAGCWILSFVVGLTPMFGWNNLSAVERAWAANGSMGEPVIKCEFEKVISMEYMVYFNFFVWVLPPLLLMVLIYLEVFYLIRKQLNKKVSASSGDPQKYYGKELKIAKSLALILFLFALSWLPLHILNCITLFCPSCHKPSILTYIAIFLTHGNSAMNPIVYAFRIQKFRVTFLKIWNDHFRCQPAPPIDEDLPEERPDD
Briefly: Displacement of [3H]N6-phenylisopropyladenosine from recombinant human A1AR expressed in CHO cell membranes after 60 mins by liquid scintillation counting method.
Settings: not given
For `CCCOC(=O)[C@@]12C[C@@H]1[C@@H](n1cnc3c(NC(C4CC4)C4CC4)nc(Cl)nc31)[C@H](O)[C@@H]2O`, the inhibitory constant (Ki) (commonly the dissociation constant of the complex between target and ligand, obtained from inhibition or displacement) is 0.44 µM.

In a further assay the target is Adenosine receptor A2a (Homo sapiens, UniProt P29274). Briefly: Displacement of [3 H]2-[p-(2-carboxyethyl)phenyl-ethylamino]-5'-N-ethylcarboxamidoadenosine from recombinant human adenosine receptor A2A expressed in HEK293 cell membranes at 10 uM after 60 mins by liquid scintillation counting method relative to control.
Adenosine receptor A2a, sequence (P29274 whole entry): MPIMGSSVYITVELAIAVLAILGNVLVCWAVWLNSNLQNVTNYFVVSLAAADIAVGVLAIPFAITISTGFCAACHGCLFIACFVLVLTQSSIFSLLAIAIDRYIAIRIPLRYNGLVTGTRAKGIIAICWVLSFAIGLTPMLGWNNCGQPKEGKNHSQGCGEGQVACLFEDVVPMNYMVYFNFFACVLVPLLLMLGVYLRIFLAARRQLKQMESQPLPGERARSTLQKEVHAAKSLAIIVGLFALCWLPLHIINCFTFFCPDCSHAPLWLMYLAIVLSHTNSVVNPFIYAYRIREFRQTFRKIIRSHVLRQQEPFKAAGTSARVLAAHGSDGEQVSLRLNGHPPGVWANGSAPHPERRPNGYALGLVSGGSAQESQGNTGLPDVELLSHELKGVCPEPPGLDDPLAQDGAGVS
Settings: not given
Consider `CCCOC(=O)[C@@]12C[C@@H]1[C@@H](n1cnc3c(NC(C4CC4)C4CC4)nc(Cl)nc31)[C@H](O)[C@@H]2O`, for which the inhibition (as a rule, the drop in the measured response relative to a control, in per cent) came out at 19%.

Another assay concerns the target T2, 5-hydroxytryptamine receptor 2B (Homo sapiens, UniProt P41595). Briefly: biochemical. It is filed as cell-based, HEK293.
Settings: not given
Take `CCCOC(=O)[C@@]12C[C@@H]1[C@@H](n1cnc3c(NC(C4CC4)C4CC4)nc(Cl)nc31)[C@H](O)[C@@H]2O`: the Ki was found to be 0.045 µM.

The next assay has as its target T3, 5-hydroxytryptamine receptor 3A (Homo sapiens) (UniProt P46098).
T3 sequence (whole entry): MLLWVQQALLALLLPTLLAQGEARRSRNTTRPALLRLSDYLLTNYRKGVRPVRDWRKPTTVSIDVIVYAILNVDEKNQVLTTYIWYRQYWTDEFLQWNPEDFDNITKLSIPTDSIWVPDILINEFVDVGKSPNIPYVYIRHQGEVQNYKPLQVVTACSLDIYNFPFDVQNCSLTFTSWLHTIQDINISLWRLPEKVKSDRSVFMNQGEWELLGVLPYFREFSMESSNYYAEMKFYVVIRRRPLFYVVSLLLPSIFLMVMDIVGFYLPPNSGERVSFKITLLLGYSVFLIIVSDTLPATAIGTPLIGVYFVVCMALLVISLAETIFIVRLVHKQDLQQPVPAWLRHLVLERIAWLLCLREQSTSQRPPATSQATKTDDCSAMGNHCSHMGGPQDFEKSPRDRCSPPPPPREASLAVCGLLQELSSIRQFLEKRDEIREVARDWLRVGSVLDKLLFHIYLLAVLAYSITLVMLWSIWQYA
Briefly: Displacement of [3H]GR65630 from human 5-HT3 receptor expressed in HEK-T cell membranes at 10 uM incubated for 90 mins under dark condition by microbeta scintillation counting method relative to control.
Settings: not given
(Loss of bound radioactivity is the signal in a displacement assay; it reports binding, not function.)
In turn, `CCCOC(=O)[C@@]12C[C@@H]1[C@@H](n1cnc3c(NC(C4CC4)C4CC4)nc(Cl)nc31)[C@H](O)[C@@H]2O` had an inhibition of less than 50%.

A further assay deals with T4, 5-hydroxytryptamine receptor 2C (Homo sapiens, UniProt P28335).
T4 sequence (P28335 whole entry): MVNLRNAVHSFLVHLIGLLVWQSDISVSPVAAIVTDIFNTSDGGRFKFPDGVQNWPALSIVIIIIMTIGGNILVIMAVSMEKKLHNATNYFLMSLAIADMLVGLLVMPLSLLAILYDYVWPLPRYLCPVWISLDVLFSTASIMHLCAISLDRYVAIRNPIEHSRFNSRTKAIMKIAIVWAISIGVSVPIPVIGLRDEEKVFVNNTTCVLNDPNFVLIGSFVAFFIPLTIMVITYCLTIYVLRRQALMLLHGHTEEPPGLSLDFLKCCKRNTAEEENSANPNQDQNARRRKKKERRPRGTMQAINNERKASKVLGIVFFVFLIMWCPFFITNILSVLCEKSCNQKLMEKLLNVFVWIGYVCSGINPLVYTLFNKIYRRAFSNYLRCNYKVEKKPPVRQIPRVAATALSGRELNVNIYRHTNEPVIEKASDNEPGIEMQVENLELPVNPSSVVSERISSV
Briefly: Displacement of [3H]mesulergine from human 5-HT2CR expressed in Flp-In HEK cell membranes incubated for 90 mins under dark condition by microbeta scintillation counting method. Set-up: species or system HEK293.
Settings: not given
In turn, `CCCOC(=O)[C@@]12C[C@@H]1[C@@H](n1cnc3c(NC(C4CC4)C4CC4)nc(Cl)nc31)[C@H](O)[C@@H]2O` registered a Ki of 0.205 µM.

A further assay concerns the target T2, 5-hydroxytryptamine receptor 2B.
Assay: not given
The settings on record: HEK293, at 10 µM.
Take `CCCOC(=O)[C@@]12C[C@@H]1[C@@H](n1cnc3c(NC(C4CC4)C4CC4)nc(Cl)nc31)[C@H](O)[C@@H]2O`: the inhibition was greater than 50%.

In a further assay the target is T5, 5-hydroxytryptamine receptor 2C (Homo sapiens) (UniProt P28335).
T5 sequence (whole entry): T4 sequence (P28335 whole entry)
Briefly: Displacement of [3H]mesulergine from human 5-HT2CR expressed in Flp-In HEK cell membranes at 10 uM incubated for 90 mins under dark condition by microbeta scintillation counting method relative to control. As to conditions: HEK293.
Compound `CCCOC(=O)[C@@]12C[C@@H]1[C@@H](n1cnc3c(NC(C4CC4)C4CC4)nc(Cl)nc31)[C@H](O)[C@@H]2O` returned an inhibition greater than 50%.

A further assay concerns the target T6, 5-hydroxytryptamine receptor 2A (Homo sapiens, UniProt P28223). Briefly: Displacement of [3H]ketanserin from human 5-HT2A receptor expressed in HEK-T cell membranes at 10 uM incubated for 90 mins under dark condition by microbeta scintillation counting method relative to control.
Settings: not given
The compound `CCCOC(=O)[C@@]12C[C@@H]1[C@@H](n1cnc3c(NC(C4CC4)C4CC4)nc(Cl)nc31)[C@H](O)[C@@H]2O` gave an inhibition of less than 10%.

For a further assay, the target named is 5-hydroxytryptamine receptor 1D (Homo sapiens) (UniProt P28221). Briefly: Displacement of [3H]5-CT from human 5-HT1D receptor expressed in HEK-T cell membranes at 10 uM incubated for 90 mins under dark condition by microbeta scintillation counting method relative to control.
5-hydroxytryptamine receptor 1D (Homo sapiens), sequence (P28221 whole entry): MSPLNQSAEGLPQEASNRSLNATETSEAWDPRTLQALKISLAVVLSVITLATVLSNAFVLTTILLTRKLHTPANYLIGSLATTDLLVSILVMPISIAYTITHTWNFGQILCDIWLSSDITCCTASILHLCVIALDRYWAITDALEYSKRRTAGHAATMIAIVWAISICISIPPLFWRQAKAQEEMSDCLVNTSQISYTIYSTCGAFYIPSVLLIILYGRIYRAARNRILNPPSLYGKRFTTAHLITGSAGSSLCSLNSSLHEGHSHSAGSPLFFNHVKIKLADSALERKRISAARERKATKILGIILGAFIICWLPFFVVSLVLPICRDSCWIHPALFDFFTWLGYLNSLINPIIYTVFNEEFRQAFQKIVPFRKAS
Settings: not given
For the compound `CCCOC(=O)[C@@]12C[C@@H]1[C@@H](n1cnc3c(NC(C4CC4)C4CC4)nc(Cl)nc31)[C@H](O)[C@@H]2O`, the inhibition was less than 50%.

In another assay the target is 5-hydroxytryptamine receptor 1B (Homo sapiens) (UniProt P28222). Briefly: Displacement of [3H]5-CT from human 5-HT1BR expressed in HEK cell membranes at 10 uM incubated for 90 mins under dark condition by microbeta scintillation counting method relative to control. The settings on record: HEK293.
5-hydroxytryptamine receptor 1B (Homo sapiens), sequence (P28222 whole entry): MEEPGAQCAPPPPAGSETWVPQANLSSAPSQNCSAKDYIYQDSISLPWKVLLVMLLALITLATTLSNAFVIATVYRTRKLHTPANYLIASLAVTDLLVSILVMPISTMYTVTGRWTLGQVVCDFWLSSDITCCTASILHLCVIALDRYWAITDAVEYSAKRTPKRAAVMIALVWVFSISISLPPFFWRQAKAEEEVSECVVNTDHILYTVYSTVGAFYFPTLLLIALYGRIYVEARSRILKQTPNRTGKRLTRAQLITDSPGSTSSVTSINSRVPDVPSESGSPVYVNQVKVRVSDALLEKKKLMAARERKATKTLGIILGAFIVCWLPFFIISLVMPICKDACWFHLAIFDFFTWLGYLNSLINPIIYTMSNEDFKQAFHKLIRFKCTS
In turn, `CCCOC(=O)[C@@]12C[C@@H]1[C@@H](n1cnc3c(NC(C4CC4)C4CC4)nc(Cl)nc31)[C@H](O)[C@@H]2O` gave an inhibition of less than 50%.

Another assay addresses T7, 5-hydroxytryptamine receptor 1A (Homo sapiens) (UniProt P08908).
T7 sequence (whole entry): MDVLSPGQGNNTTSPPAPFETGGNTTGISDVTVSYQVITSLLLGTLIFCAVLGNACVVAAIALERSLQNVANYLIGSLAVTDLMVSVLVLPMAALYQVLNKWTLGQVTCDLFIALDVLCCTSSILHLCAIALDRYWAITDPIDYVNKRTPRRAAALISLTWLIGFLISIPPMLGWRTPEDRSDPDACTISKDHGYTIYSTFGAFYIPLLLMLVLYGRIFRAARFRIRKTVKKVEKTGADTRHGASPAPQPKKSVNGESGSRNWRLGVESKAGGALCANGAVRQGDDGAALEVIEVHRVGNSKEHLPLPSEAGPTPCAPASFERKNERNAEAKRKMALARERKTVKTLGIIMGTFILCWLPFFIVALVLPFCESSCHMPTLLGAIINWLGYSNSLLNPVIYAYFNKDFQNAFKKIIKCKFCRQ
Briefly: Displacement of [3H]WAY100635 from human 5-HT1AR expressed in CHO cell membranes at 10 uM incubated for 90 mins under dark condition by microbeta scintillation counting method relative to control.
Settings: not given
Take `CCCOC(=O)[C@@]12C[C@@H]1[C@@H](n1cnc3c(NC(C4CC4)C4CC4)nc(Cl)nc31)[C@H](O)[C@@H]2O`: the inhibition was less than 50%.

A further assay concerns the target 5-hydroxytryptamine receptor 1E (Homo sapiens) (UniProt P28566). Briefly: Displacement of [3H]5-HT from human 5-HT1E receptor expressed in HEK cell membranes at 10 uM incubated for 90 mins under dark condition by microbeta scintillation counting method relative to control. As to conditions: HEK293.
Compound `CCCOC(=O)[C@@]12C[C@@H]1[C@@H](n1cnc3c(NC(C4CC4)C4CC4)nc(Cl)nc31)[C@H](O)[C@@H]2O` registered an inhibition of less than 50%.

The next assay concerns the target 5-hydroxytryptamine receptor 7 (Homo sapiens) (UniProt P34969). Briefly: Displacement of [3H]LSD from human 5-HT7A receptor expressed in HEK cell membranes at 10 uM incubated for 90 mins under dark condition by microbeta scintillation counting method relative to control. As to conditions: HEK293.
In the case of `CCCOC(=O)[C@@]12C[C@@H]1[C@@H](n1cnc3c(NC(C4CC4)C4CC4)nc(Cl)nc31)[C@H](O)[C@@H]2O`, the inhibition is less than 50%.

The target of the next assay is 5-hydroxytryptamine receptor 5A (Homo sapiens) (UniProt P47898). Briefly: Displacement of [3H]LSD from human 5-HT5A receptor expressed in Flp-In-CHO cell membranes incubated for 90 mins under dark condition by microbeta scintillation counting method relative to control. Set-up: concentration or dose not given beside the values.
5-hydroxytryptamine receptor 5A (Homo sapiens), sequence (P47898 whole entry): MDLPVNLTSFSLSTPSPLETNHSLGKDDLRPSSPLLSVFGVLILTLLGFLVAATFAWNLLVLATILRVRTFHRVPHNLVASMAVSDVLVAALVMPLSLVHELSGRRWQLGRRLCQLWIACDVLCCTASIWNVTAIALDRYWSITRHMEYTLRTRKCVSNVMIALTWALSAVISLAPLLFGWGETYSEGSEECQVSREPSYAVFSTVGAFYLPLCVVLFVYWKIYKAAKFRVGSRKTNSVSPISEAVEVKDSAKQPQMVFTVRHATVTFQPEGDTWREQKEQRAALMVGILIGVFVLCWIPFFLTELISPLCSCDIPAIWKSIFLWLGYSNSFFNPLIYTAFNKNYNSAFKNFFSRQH
Settings: not given
Turning to `CCCOC(=O)[C@@]12C[C@@H]1[C@@H](n1cnc3c(NC(C4CC4)C4CC4)nc(Cl)nc31)[C@H](O)[C@@H]2O`, the inhibition was less than 50%.

The target in a further assay is 5-hydroxytryptamine receptor 6 (Homo sapiens) (UniProt P50406). Briefly: Displacement of [3H]LSD from human 5-HT6 receptor expressed in HEK cell membranes at 10 uM incubated for 90 mins under dark condition by microbeta scintillation counting method relative to control. The settings on record: HEK293.
5-hydroxytryptamine receptor 6 (Homo sapiens), sequence (P50406 whole entry): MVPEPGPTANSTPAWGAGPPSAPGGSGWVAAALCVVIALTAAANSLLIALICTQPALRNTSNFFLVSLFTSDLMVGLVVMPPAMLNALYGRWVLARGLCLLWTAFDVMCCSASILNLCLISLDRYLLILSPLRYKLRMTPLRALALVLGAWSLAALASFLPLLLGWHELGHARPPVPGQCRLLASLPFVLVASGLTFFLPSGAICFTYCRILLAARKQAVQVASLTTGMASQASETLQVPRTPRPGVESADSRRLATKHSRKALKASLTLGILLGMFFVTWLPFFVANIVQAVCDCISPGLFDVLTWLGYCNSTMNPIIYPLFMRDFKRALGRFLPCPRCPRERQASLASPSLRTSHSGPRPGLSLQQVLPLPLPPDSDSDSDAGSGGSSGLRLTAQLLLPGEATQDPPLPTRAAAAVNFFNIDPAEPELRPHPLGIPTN
The compound `CCCOC(=O)[C@@]12C[C@@H]1[C@@H](n1cnc3c(NC(C4CC4)C4CC4)nc(Cl)nc31)[C@H](O)[C@@H]2O` showed an inhibition of less than 50%.

The target of another assay is T6, 5-hydroxytryptamine receptor 2A. Briefly: Displacement of [3H]ketanserin from human 5-HT2A receptor expressed in HEK-T cell membranes incubated for 90 mins under dark condition by microbeta scintillation counting method.
Settings: not given
Turning to `CCCOC(=O)[C@@]12C[C@@H]1[C@@H](n1cnc3c(NC(C4CC4)C4CC4)nc(Cl)nc31)[C@H](O)[C@@H]2O`, the Ki is greater than 10 µM.

The next assay has as its target T8, Adenosine receptor A3 (Homo sapiens, UniProt P0DMS8).
T8 sequence (P0DMS8 whole entry): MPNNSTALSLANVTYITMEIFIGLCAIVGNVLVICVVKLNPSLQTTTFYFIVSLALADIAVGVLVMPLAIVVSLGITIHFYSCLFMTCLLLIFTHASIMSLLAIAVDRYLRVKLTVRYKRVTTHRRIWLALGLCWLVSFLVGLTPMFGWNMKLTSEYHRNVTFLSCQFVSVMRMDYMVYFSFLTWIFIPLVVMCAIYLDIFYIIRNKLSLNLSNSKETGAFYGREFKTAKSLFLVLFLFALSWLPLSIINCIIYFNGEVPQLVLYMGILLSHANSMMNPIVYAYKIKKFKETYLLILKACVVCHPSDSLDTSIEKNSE
Briefly: Displacement of [125l]N 6-(4-amino-3-iodobenzyl)adenosine-5'-N-methyluronamide from recombinant human A3AR expressed in CHO cell membranes after 60 mins by gamma counting method.
Settings: not given
Regarding `CCCOC(=O)[C@@]12C[C@@H]1[C@@H](n1cnc3c(NC(C4CC4)C4CC4)nc(Cl)nc31)[C@H](O)[C@@H]2O`, the Ki amounted to 0.499 µM.

Another assay concerns the target 5-hydroxytryptamine receptor 4 (Homo sapiens) (UniProt Q13639). Briefly: Displacement of [3H]GR113808 from human 5-HT4 receptor at 10 uM incubated for 90 mins under dark condition by microbeta scintillation counting method relative to control.
Settings: not given
Compound `CCCOC(=O)[C@@]12C[C@@H]1[C@@H](n1cnc3c(NC(C4CC4)C4CC4)nc(Cl)nc31)[C@H](O)[C@@H]2O` showed an inhibition of less than 50%.

The next assay deals with Translocator protein (Homo sapiens, UniProt P30536). Briefly: Inhibition of TSPO (unknown origin).
Translocator protein, sequence (P30536 whole entry): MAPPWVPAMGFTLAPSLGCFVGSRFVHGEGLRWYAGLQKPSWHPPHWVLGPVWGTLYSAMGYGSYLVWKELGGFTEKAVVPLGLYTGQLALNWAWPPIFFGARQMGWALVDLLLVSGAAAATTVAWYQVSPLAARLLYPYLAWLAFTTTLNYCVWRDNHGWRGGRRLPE
Settings: not given
`CCCOC(=O)[C@@]12C[C@@H]1[C@@H](n1cnc3c(NC(C4CC4)C4CC4)nc(Cl)nc31)[C@H](O)[C@@H]2O` came in with a Ki of 2.2 µM.

(Values after ChEMBL document CHEMBL3862033 (J Med Chem, 2016).)
